The values below come from ChEMBL document CHEMBL3507680, “University of Dundee, Gates Library screen for HepG2 cell viability”.

A short description of this data set: Human HepG2 cell viability assay in 384 well format. It counts as toxicity, cell-based. On the set-up: dose 125 nL, time 70.5 hour; concentration not given beside the values. The following applies: HepG2 cells, read-out: Inhibition.
As for `CCc1cc(C(=O)N2CCCC2c2nc(C)c(CC)c(O)n2)on1` (centres undefined), the cytotoxicity at 70.5 h is -6.15%.

With `CCOC(=O)c1ccc(NC(=O)c2c(O)nc3c(c2O)CCCC3)cc1`, the cytotoxicity at 70.5 h is -10.8%.

On to `c1cncc(CN(Cc2ccsc2)Cc2ccc(C3CCCCO3)o2)c1` (centres undefined), for which the cytotoxicity at 70.5 h amounted to 6.4%.

Take `Cn1ccc(CN2CCC3(CC2)CC(Nc2ccccn2)CO3)n1` (centres undefined): the cytotoxicity at 70.5 h was -2.31%.

Take `CSCCc1c(-c2ccccc2)ncn1[C@H]1C[C@@H](C(=O)O)N(C)C1`: the cytotoxicity at 70.5 h is -13.3%.

`Cc1nc(CN2CCC3(CC2)CC(=O)N(C)c2ccccc23)cs1`: the cytotoxicity at 70.5 h was -7.28%.

As for `COCCNC1(c2ccc(Cl)cc2)CCOCC1`, the cytotoxicity at 70.5 h stood at 11%.

Turning to `OC[C@@H](O)CN(CCC(F)(F)F)c1ncc(Cl)cn1`, the cytotoxicity at 70.5 h was -4.91%.

As for `Cc1ccc(C(=O)O)cc1S(=O)(=O)N(CC(C)O)c1ccccc1` (centres undefined), the cytotoxicity at 70.5 h is -16.2%.

`Cc1cccc(-n2nnnc2C2(NCc3ccco3)CCCCC2)c1`: the cytotoxicity at 70.5 h is -3.38%.

For `OCC(O)CSCc1nnc(-c2ccc(Cl)cc2)o1` (centres undefined), the cytotoxicity at 70.5 h is -13.7%.

Regarding `O=C(c1ccccn1)N1CCc2c(nc(-c3ccncc3)[nH]c2=O)C1`, the cytotoxicity at 70.5 h was -6.64%.

On to `COCCN1CCC2(COCc3c(C)nc(N(C)C)nc32)C1` (centres undefined), for which the cytotoxicity at 70.5 h was -2.27%.

`COc1ccc(C(=O)N2CCC(Oc3cccc(C)c3)(C(=O)O)CC2)o1`: the cytotoxicity at 70.5 h stood at 5.99%.

With `CCc1nc(CN2CCN(C(=O)c3cncnc3CC)CC2)cs1`, the cytotoxicity at 70.5 h is -3.73%.

For the compound `c1cc2c(cc1-c1noc3c1CN(C1CCC1)CC3)OCO2`, the cytotoxicity at 70.5 h was 1.77%.

For the compound `CC(C)Oc1ncc(C(=O)N2CCC(N(C)C)CC2)cc1Cl`, the cytotoxicity at 70.5 h is -9.31%.

For the compound `Cc1ccn2c(F)c(C(=O)N3CCC4(CCCN(C)C4=O)C3)nc2c1` (centres undefined), the cytotoxicity at 70.5 h is -8.44%.

For the compound `Cc1nc(C)n(CC2CCCCN2CC(=O)Nc2cccnc2)n1` (centres undefined), the cytotoxicity at 70.5 h was -0.493%.

Regarding `CCN(C)S(=O)(=O)NCC1(c2ccccc2Br)CC1`, the cytotoxicity at 70.5 h came to 4.86%.

In the case of `O=c1[nH]c(CCN2CCCC2Cn2cccn2)nc2ccccc12` (centres undefined), the cytotoxicity at 70.5 h was -9.61%.

In the case of `NS(=O)(=O)CCN1CCN(c2cc(F)ccc2F)CC1`, the cytotoxicity at 70.5 h stood at 10.3%.

`CCn1nc(C)cc1C(=O)Nc1cc(F)ccc1OCC1CCCO1` (centres undefined): the cytotoxicity at 70.5 h was -16.3%.

Regarding `NC1CCN(c2nccn3c(=O)[nH]nc23)CC1`, the cytotoxicity at 70.5 h worked out at 22.8%.

Consider `COc1ccc(-c2ccccc2CCN)c(OC)c1OC`, for which the cytotoxicity at 70.5 h came out at 6.2%.

As to `Nc1nccnc1C1CN(C(=O)c2cnc(C3CC3)nc2)CCO1` (centres undefined), the cytotoxicity at 70.5 h is -4.03%.

In the case of `Cc1cc(C)n(CC2CN(Cc3nc(C4CC4)no3)CCO2)n1` (centres undefined), the cytotoxicity at 70.5 h was -4.87%.

For `O=C(NCc1cc(O)ncn1)C1COc2ccccc2C1` (centres undefined), the cytotoxicity at 70.5 h was -8.68%.

In the case of `OCC1(Cc2ccccc2F)CCCN(c2ccc3ccccc3n2)C1` (centres undefined), the cytotoxicity at 70.5 h is -1.23%.

For the compound `COC(=O)c1cccc(S(=O)(=O)Nc2ncc(C)s2)c1`, the cytotoxicity at 70.5 h came to 0.827%.

For the compound `COc1ccc(C(C)Nc2ncc(C(N)=O)cc2Cl)cc1OC` (centres undefined), the cytotoxicity at 70.5 h was -10.8%.

Turning to `O=S(=O)(N1CCOCC1)N1CCCC(c2ccccn2)C1` (centres undefined), the cytotoxicity at 70.5 h is -8.61%.

Take `CN(C)c1nc2n(c(=O)n1)CCN2C(=O)Nc1cccc(Cl)c1`: the cytotoxicity at 70.5 h is -9.23%.

Take `Cc1cc(C(=O)NCCSC2CCCC2)no1`: the cytotoxicity at 70.5 h was -1.92%.

For `COCCn1cc(CC(=O)Nc2cc(C)n(C)n2)c2ccccc21`, the cytotoxicity at 70.5 h was -5.22%.

`CCCOC1CCCN(C(=O)c2cnc(-c3csc(C)n3)nc2O)C1` (centres undefined): the cytotoxicity at 70.5 h is -6.67%.

In the case of `COc1cccc(Cl)c1C(C(=O)O)N(C)Cc1nnc(C)o1` (centres undefined), the cytotoxicity at 70.5 h was 11.6%.

For `CCCc1cc(C(=O)NCCN2CCCS2(=O)=O)[nH]n1`, the cytotoxicity at 70.5 h is -7.48%.

In the case of `Nc1ncccc1CN1C[C@H]2OC(=O)N(Cc3ccccn3)[C@H]2C1`, the cytotoxicity at 70.5 h is -3.5%.

As to `Cn1cc(C(=O)N2CCCC2c2[nH]ncc2C(N)=O)cn1` (centres undefined), the cytotoxicity at 70.5 h was -5.5%.

As to `CC(C)(C)CCN1CCN(Cn2nccc2-c2cccnc2)CC1`, the cytotoxicity at 70.5 h came out at 0.907%.

As for `CN1CCc2[nH]cnc2C12CCN(Cc1ccc(S(C)(=O)=O)cc1)CC2`, the cytotoxicity at 70.5 h is -7.39%.

For `CCc1nc(CN2CCCN(C(=O)c3cn[nH]c3CC)CC2)cs1`, the cytotoxicity at 70.5 h was 12.4%.

For `O=C(N1CCCC1)N1CC[C@H]2OCC[C@@]2(COc2ncccc2F)C1`, the cytotoxicity at 70.5 h was -1.3%.

In the case of `O=C(c1ccc(=O)[nH]n1)N1CCc2ccccc21`, the cytotoxicity at 70.5 h is -0.117%.

On to `O=C(Nc1cn[nH]c1)N(CCO)C1CCc2ccccc21` (centres undefined), for which the cytotoxicity at 70.5 h is -13.9%.

`O=c1oc(-c2cccs2)nn1CC(O)c1ccc(F)cc1` (centres undefined): the cytotoxicity at 70.5 h is -11.2%.

As for `CNC(=O)CN(C)S(=O)(=O)c1c(Br)cc2[nH]c(=O)oc2c1Cl`, the cytotoxicity at 70.5 h is -3.9%.

On to `CC(=O)NCC(=O)N1CCC2(CC1)C(=O)N(CC1CC1)c1ccccc12`, for which the cytotoxicity at 70.5 h was -11.7%.

As to `O=C(CN1CCCCC1Cn1cncn1)NCCOc1ccccc1` (centres undefined), the cytotoxicity at 70.5 h is -1.79%.

Take `CN(C)c1ncccc1CNC(=O)c1csc(Br)c1`: the cytotoxicity at 70.5 h is 13.3%.

As to `CCNC(=O)[C@@H]1CCCN1[C@@H](C(=O)NC)c1ccccc1OC`, the cytotoxicity at 70.5 h was -8.29%.

As to `Cc1noc([C@@H]2C[C@H](NC(=O)C3CCCCC3)CN2C)n1`, the cytotoxicity at 70.5 h was 0.213%.

In the case of `Cn1ncc(NCc2cc(F)cc(F)c2)c(Cl)c1=O`, the cytotoxicity at 70.5 h is -7.18%.

On to `Cc1noc(C)c1CN1CCn2cc(CNc3ccccn3)nc2C1`, for which the cytotoxicity at 70.5 h came to 5.28%.

For `O=C(COc1cccc(Br)c1)N1CCOCC1c1ncon1` (centres undefined), the cytotoxicity at 70.5 h is -3.27%.

Regarding `CN1CCC(N(Cc2ccco2)S(=O)(=O)c2ccc(Cl)cc2)CC1`, the cytotoxicity at 70.5 h is -3.29%.

As for `Cc1ccc2[nH]c(CNC(=O)C3CC4(CCNCC4)CN3C)nc2c1C` (centres undefined), the cytotoxicity at 70.5 h was determined as 50.4%.

On to `CCCn1ccnc1CN1CCCC(O)(CN2CCCC2)C1` (centres undefined), for which the cytotoxicity at 70.5 h is -2.63%.

As for `O=C(Cn1cccc(S(=O)(=O)N2CCCC2)c1=O)c1ccccc1Cl`, the cytotoxicity at 70.5 h is -8.77%.

As to `CC(=O)NCC(=O)NC1CCc2c(ccc(=O)n2CC2CC2)C1` (centres undefined), the cytotoxicity at 70.5 h is -1.98%.

Regarding `Cc1csc(C2CCCCN2C(=O)CCn2cncn2)n1` (centres undefined), the cytotoxicity at 70.5 h turned out to be 33.9%.

As to `CCOC(=O)C1(Cc2cccc(Cl)c2)CCCN(Cc2ncc[nH]2)C1` (centres undefined), the cytotoxicity at 70.5 h was determined as 0.345%.

For the compound `CC(C)c1ccc(C2CC(=O)Nc3c2cnn3C)cc1` (centres undefined), the cytotoxicity at 70.5 h was -15.6%.

In the case of `CCOc1cccnc1C(=O)N1CCC(c2ccccc2OC)C1` (centres undefined), the cytotoxicity at 70.5 h is -8.54%.

With `CC(C)(C)OC(=O)N[C@@H]1C[C@@H](O)CN(C(=O)c2cccc(F)c2)C[C@H]1O`, the cytotoxicity at 70.5 h was -3.14%.

Turning to `CS(=O)(=O)N1CCCC1CS(=O)(=O)c1ccccc1` (centres undefined), the cytotoxicity at 70.5 h is -11.6%.

For `OC1(Cn2ccc3ncccc32)CCN(Cc2ccccc2F)CC1`, the cytotoxicity at 70.5 h was 2.31%.

As for `Cc1noc(C2CCN(C(=O)c3ccc(NC4CC4)nc3)CC2)n1`, the cytotoxicity at 70.5 h is -10.2%.

As for `COCCNC(=O)c1cc(COc2cncc(Cl)c2)on1`, the cytotoxicity at 70.5 h is -3.27%.

For `Cc1ccc(C)n1C(C)C(=O)N1CCCN(Cc2cscn2)CC1` (centres undefined), the cytotoxicity at 70.5 h is -0.61%.

`CCc1nc(N2CCC3(CC2)CC(=O)N(Cc2ccc(Cl)cc2)C3)no1`: the cytotoxicity at 70.5 h was -10.7%.

As to `Cc1ccc(N2N=C(C(=O)O)S(=O)(=O)c3cccnc32)cc1`, the cytotoxicity at 70.5 h is -8.77%.

In the case of `Cc1n[nH]c2c1C(c1cnn(C)c1)SCC(=O)N2` (centres undefined), the cytotoxicity at 70.5 h was -6.84%.

In the case of `Cc1ccc(C(=O)N2CC[C@@]3(O)CCCC[C@H]3C2)cc1`, the cytotoxicity at 70.5 h came to 7.79%.

Consider `CN1CCN(c2cccc(Cl)c2CNCCS(C)(=O)=O)CC1`, for which the cytotoxicity at 70.5 h is -8.06%.

On to `COc1ccc(-c2ccncc2)cc1CNC1CCCC1`, for which the cytotoxicity at 70.5 h is -4.27%.

As to `Cc1nn(C)cc1-c1cc(C(F)F)nc2sc(C(N)=O)c(N)c12`, the cytotoxicity at 70.5 h came to 7.12%.

For the compound `Cc1csc(CNCC2CCCN(C(=O)OC(C)(C)C)C2)n1` (centres undefined), the cytotoxicity at 70.5 h was -1.06%.

With `CN(Cc1ccc(Br)c2cccnc12)S(C)(=O)=O`, the cytotoxicity at 70.5 h was determined as 12.8%.

As to `Cc1ccc(C(=O)Nc2cn[nH]c2)cc1`, the cytotoxicity at 70.5 h is -6.42%.

On to `Cn1c(N)c2c(=O)n(C)c(-c3ccc(Cl)cc3Cl)cc2c(C#N)c1=O`, for which the cytotoxicity at 70.5 h was -4.83%.

For the compound `CCn1cc(CN2CCCN(C(=O)CCc3cccs3)CC2)cn1`, the cytotoxicity at 70.5 h is -12.3%.

Regarding `Cc1nc(COC(=O)c2cccc3c2OCCO3)no1`, the cytotoxicity at 70.5 h is 23.5%.

`COc1cc(CNCc2c(C)nn(C)c2N(C)C)ccc1OCCO`: the cytotoxicity at 70.5 h was 5.42%.

Consider `Cn1ccnc1CN1C[C@@H](CN2CCCCCC2)[C@@H](CO)C1`, for which the cytotoxicity at 70.5 h is 1.19%.

For `Cc1cc(C(F)(F)F)cc(N2C[C@@H](CN(C)CCO)[C@@H](CO)C2)n1`, the cytotoxicity at 70.5 h was determined as 2.18%.

As to `Cc1ccc2occ(CN3CCN(c4ncccn4)CC3)c(=O)c2c1`, the cytotoxicity at 70.5 h stood at 29.4%.

For the compound `CCOCC1CN(Cc2cc(C)on2)Cc2cn(C)nc21` (centres undefined), the cytotoxicity at 70.5 h came out at 4.78%.

For the compound `OC(COCc1ccccc1)CSc1nnc(C2CC2)n1C1CC1` (centres undefined), the cytotoxicity at 70.5 h stood at 0.33%.

On to `N#CCCNC(=O)CN1CCC(c2cc3ccccc3[nH]2)CC1`, for which the cytotoxicity at 70.5 h was -10.1%.

For `Cc1cc(C[C@@H]2COC[C@@H]2NC(=O)CNC(=O)N(C)C)on1`, the cytotoxicity at 70.5 h was found to be 9.05%.

As for `O=C(O)CSc1nnc(-c2ccco2)n1-c1ccccc1C(F)(F)F`, the cytotoxicity at 70.5 h was -4.07%.

In the case of `C[C@@H]1CN(C2(C(=O)N3CCSCC3)Cc3ccccc3C2)C[C@H](C)O1`, the cytotoxicity at 70.5 h stood at 2.94%.

On to `CC1c2ccc(F)cc2CCN1C(=O)c1nc(=O)[nH][nH]1` (centres undefined), for which the cytotoxicity at 70.5 h was -6.25%.

With `O=C(NCC(F)(F)F)c1ccc(-n2cncn2)nn1`, the cytotoxicity at 70.5 h came to 1.36%.

Consider `CC(=O)N1CCC(c2cccc(Oc3ccccc3)n2)CC1`, for which the cytotoxicity at 70.5 h is -3.81%.

Take `COc1ccc2cc(C3CN(C(=O)C4CCOCC4)CCO3)ccc2c1` (centres undefined): the cytotoxicity at 70.5 h was 1.57%.

Consider `CCOCc1nn(CC2CC2)c2c1CN(Cc1ccco1)CC2`, for which the cytotoxicity at 70.5 h was -6.88%.
